Results: ChEMBL document CHEMBL5223098, “Prodrugs of pyrophosphates and bisphosphonates: disguising phosphorus oxyanions” (RSC Med Chem, 2022)
Blank lines part the entries; values can stand above or below the compound they belong to.

Tests used:
[1] = Half-life of the compound in 80% human serum by HPLC analysis; type: ADME, cell-free; settings: 80% serum
[2] = Apparent partition coefficient, logPapp of the compound in pH 7.4 phosphate buffer incubated for 30 mins by HPLC analysis; type: physicochemical
[3] = Half-life of the compound in pH 2.0 phosphate buffer by HPLC analysis; type: physicochemical
[4] = Half-life of the compound in pH 7.4 phosphate buffer by HPLC analysis; type: physicochemical
[5] = 1-Octanol/phosphate buffer apparent partition coefficient, logPapp of the compound at pH 7.4 by shake-flask method; type: physicochemical
[6] = Half-life of the compound in 10% rabbit liver homogenate by HPLC analysis; type: ADME, tissue-based, Oryctolagus cuniculus; settings: 10% liver homogenate
[7] = Half-life of the compound in pH 5.0 phosphate buffer by HPLC analysis; type: physicochemical
[8] = Octanol-water partition coefficient, logP of the compound by shake-flask method; type: physicochemical
[9] = Apparent partition coefficient, logPapp of the compound by HPLC analysis; type: physicochemical; settings: octanol/water
[10] = Half-life of the compound in human serum by HPLC analysis; type: ADME, cell-free
[11] = 1-Octanol/phosphate buffer apparent partition coefficient, logPapp of the compound by shake-flask method; type: physicochemical
[12] = Half-life of the compound in pH 7.3 PBS buffer; type: physicochemical
[13] = Half-life of the compound in human CEM/0 cell extract at pH 6.9; type: ADME, CCRF-CEM
[14] = Half life of the compound in pH 7.0 TEAA buffer; type: physicochemical
[15] = Half life of the compound in RPMI medium; type: physicochemical
[16] = test system: Human immunodeficiency virus 2; experiment: Potency index, ratio of d4T EC50 to test compound EC50 for antiviral activity against HIV2 infected in human CEM-TK(-) cells assessed as inhibition of viral replication incubated for 4 to 5 days by microscopic analysis; type: functional; settings: time 4-5 day
[17] = test system: Human immunodeficiency virus 2; experiment: Antiviral activity against HIV2 infected in human CEM-TK(-) cells assessed as inhibition of viral replication incubated for 4 to 5 days by microscopic analysis; type: functional, organism-based; settings: Human immunodeficiency virus 2, CEM-TK(-)
[18] = Time for quantitative release of etidronate in 10% rabbit liver homogenate; settings: 10% liver homogenate

SMILES: CC(C)(C)C(=O)OP(=O)(O)C(Cl)(Cl)P(=O)(O)OC(=O)C(C)(C)C
half-life [1]: 3.3 h | logD at 0.5 h [2]: -2.3

SMILES: CC(=O)OP(=O)(O)C(Cl)(Cl)P(=O)(O)OC(C)=O
half-life [3]: 0.75 h | logD at 0.5 h [2]: -2.3 | half-life [4]: 15.2 h

SMILES: O=C(OP(=O)(O)C(Cl)(Cl)P(=O)(O)OC(=O)c1ccccc1)c1ccccc1
logD at 0.5 h [2]: -2.3

SMILES: CCCC(=O)OP(=O)(O)C(Cl)(Cl)P(=O)(O)OC(=O)CCC
half-life [3]: 0.75 h | logD at 0.5 h [2]: -2.3 | half-life [4]: 15.2 h

SMILES: COc1ccc(OP(=O)(O)C(O)(c2cccc(Br)c2)P(=O)(O)Oc2ccc(OC)cc2)cc1 (stereo not drawn)
logP [8]: -0.31

SMILES: CC(=O)OC(C)(P(=O)(OCOC(=O)C(C)(C)C)OCOC(=O)C(C)(C)C)P(=O)(OCOC(=O)C(C)(C)C)OCOC(=O)C(C)(C)C
logD [9]: 7.4

SMILES: CC(=O)Oc1ccc(COP(=O)(OCc2ccc(OC(C)=O)cc2)OP(=O)(O)OC[C@H]2O[C@@H](n3cc(C)c(=O)[nH]c3=O)C[C@@H]2N=[N+]=[N-])cc1
half-life [12]: 17 h | half-life [13]: 2 min

SMILES: Cc1cn([C@H]2C=C[C@@H](CO)O2)c(=O)[nH]c1=O [STAVUDINE]
EC50 [17]: 70 µM

Further lines, with some results ahead:

logD [5]: -2.1 | half-life [6]: 0.233 h
SMILES: CC(C)(C)C(=O)OCOP(=O)(O)C(Cl)(Cl)P(=O)(O)OCOC(=O)C(C)(C)C

logD [5]: 7.4
SMILES: CC(C)(C)C(=O)OCOP(=O)(OCOC(=O)C(C)(C)C)C(Cl)(Cl)P(=O)(OCOC(=O)C(C)(C)C)OCOC(=O)C(C)(C)C

half-life [7]: > 1 h | logD [5]: 1.6 | half-life [4]: > 1 h | half-life [6]: 0.0183 h
SMILES: CC(C)(C)C(=O)OCOP(=O)(O)C(Cl)(Cl)P(=O)(OCOC(=O)C(C)(C)C)OCOC(=O)C(C)(C)C

half-life [10]: 4.8 h | half-life [7]: 252 h | logD [11]: 0.6 | half-life [4]: 163 h | half-life [6]: 0.045 h
SMILES: CC(=O)OC(C)(P(=O)(O)OCOC(=O)C(C)(C)C)P(=O)(OCOC(=O)C(C)(C)C)OCOC(=O)C(C)(C)C (stereo not drawn)

half-life [14]: 114 h | half-life [15]: 1.7 h
SMILES: CCCCCCCCCCCCCC(=O)OP(=O)(O)OP(=O)(O)OC[C@H]1O[C@@H](n2cc(C)c(=O)[nH]c2=O)C[C@@H]1N=[N+]=[N-]

EC50 [17]: 0.85 µM
SMILES: Cc1cn([C@H]2C=C[C@@H](COP(=O)(O)OP(=O)(OCc3ccc(OC(=O)c4ccccc4)cc3)OCc3ccc(OC(=O)c4ccccc4)cc3)O2)c(=O)[nH]c1=O
Ratio EC50 [16]: 82

EC50 [17]: 2.6 µM
SMILES: CCCCCCCC(=O)Oc1ccc(COP(=O)(OCc2ccc(OC(=O)CCCCCCC)cc2)OP(=O)(O)OC[C@@H]2C=C[C@H](n3cc(C)c(=O)[nH]c3=O)O2)cc1
Ratio EC50 [16]: 27

time to quantitative release [18]: 3300 min
SMILES: CC(O)(P(=O)(O)O)P(=O)(O)O [ETIDRONIC ACID]
